{
  "source": "paper PMC8848508",
  "about": "(ACS Central Science, 2022)",
  "key": {"[1]": {"tested_on": "SARS-CoV-2", "settings": "read-out: antiviral EC50, primary CPE assay, cited from earlier work"}, "[2]": {"tested_on": "SARS-CoV-2", "settings": "read-out: antiviral EC50; cited from earlier work"}, "[3]": {"tested_on": "SARS-CoV-2", "settings": "read-out: antiviral EC50; genomic RNA quantification; cited from earlier work"}, "[4]": {"molecular_target": "SARS-CoV-2 M^Pro (Severe acute respiratory syndrome coronavirus 2, UniProt P0DTD1)", "format": "biochemical", "settings": "at 16 μM inhibitor"}},
  "note": "Read-outs that look alike come from different tables or passages of the source.",
  "data": [
    {"smiles": "CC(C)COCC(CN(Cc1ccccc1)c1ccccc1)N1CCCC1", "note": "(centres unmarked) [bepridil]", "values": [
      {"measurement": "EC50", "setting": "[1]; ACE2+ A549 cells", "result": 0.46, "unit": "µM"}
    ]},
    {"smiles": "CC(C)(C)NC(=O)N[C@H](C(=O)N1C[C@H]2[C@@H]([C@H]1C(=O)NC(CC1CCC1)C(=O)C(N)=O)C2(C)C)C(C)(C)C", "note": "(some centres unmarked) [boceprevir]", "values": [
      {"measurement": "EC50", "setting": "[2]", "result": 15.6, "unit": "µM"},
      {"measurement": "EC50", "setting": "[1]", "result": "1.31 ± 0.58", "unit": "µM"}
    ]},
    {"smiles": "CCCCCCNC(=O)n1cc(F)c(=O)[nH]c1=O", "note": "[carmofur]", "values": [
      {"measurement": "EC50", "setting": "[3]", "result": "> 100", "unit": "µM"}
    ]},
    {"smiles": "CCN(CC)CCCC(C)Nc1ccnc2cc(Cl)ccc12", "note": "(centres unmarked) [chloroquine]", "values": [
      {"measurement": "M^Pro retained activity", "setting": "[4]", "result": 84, "unit": "%"}
    ]}
  ]
}
